Patent US9510598B2, “Nitrogen-containing heterocyclic compounds for plant disease control” (BAYER CROPSCIENCE AG, priority 2012, dated 2016)
Read-outs that look alike come from different tables or passages of the source.

Experiments:
[1] = assay type: physicochemical
Septoria tritici = assay: In vivo preventive test on Septoria tritici (leaf spot on wheat); settings: 500 ppm; wheat plants sprayed 24 hours before contamination; grading 21 to 28 days after contamination vs control plants
Procedure: Wheat plants (“Scipion” variety), sown in starter cups on a 50/50 peat soil-pozzolana substrate and grown at 22° C. (12 h)/20° C. (12 h), are treated at the 1-leaf stage (10 cm height) by spraying with the active ingredient prepared as described above. Plants, used as controls, are treated with the mixture of acetone/tween/DMSO/water not containing the active material. After 24 hours, the plants are contaminated by spraying the leaves with an aqueous suspension of cryopreserved Septoria tritici spores (500 000 spores per ml). […] Grading (% of efficacy) is carried out 21 to 28 days after the contamination, in comparison with the control plants.

[2] = HPLC on reversed phase columns, method [a]: pH 2.7, 0.1% formic acid in water / acetonitrile, linear gradient 10% to 95% acetonitrile
[3] = method [a]: HPLC/LC-MS on reversed phase at pH 2.7, 0.1% formic acid in water / acetonitrile, linear gradient 10% to 95% acetonitrile
[4] = method [a]: HPLC/LC-MS on reversed phase at pH 2.7, 0.1% formic acid in water / acetonitrile, gradient 10% to 95% acetonitrile

| log P [1, 2] | log P [1, 3] | log P [1, 4] | log P ([1]; HPLC on reversed phase columns, method [a]: pH 2.7, 0.1% formic acid in water and acetonitrile, linear gradient 10% to 95% acetonitrile) | Structure (SMILES) | % of efficacy (protection) (Septoria tritici) [%] |
| --- | --- | --- | --- | --- | --- |
| 3.46[a] | – | – | – | CC(C)NC(=O)C1(C)CC(c2ccc3nc(Cl)c(Br)cc3c2)=NO1 (centres unmarked) [compound 287] | 83 |
| – | 1.44^[a] | – | – | CC(C)NC(=O)C1(C)CC(c2ccc3ncccc3c2)=NO1 (centres unmarked) [compound 143] | 71 |
| – | 3.8^[a] | – | – | CCOCCCNC(=O)C1(Cc2ccccc2)CC(c2ccc3ncc(Br)cc3c2)=NO1 (centres unmarked) [compound 59] | 70 |
| 2.38[a] | – | – | – | CCn1cc(CNC(=O)C2(F)CC(c3ccc4ncc(Br)cc4c3)=NO2)c(C)n1 (centres unmarked) [compound 279] | 75 |
| – | 2.25^[a] | – | – | C#Cc1cnc2ccc(C3=NOC(C)(C(=O)NCc4cn[nH]c4-c4cccs4)C3)cc2c1 (centres unmarked) [compound 192] | 71 |
| 3.12[a] | – | – | – | CCn1cc(CNC(=O)C2(C)CC(c3ccc4nc(Cl)c(Br)cc4c3)=NO2)c(C)n1 (centres unmarked) [compound 286] | 92 |
| – | – | – | 2.98[a] | C=CC1(C(=O)NCC2COC(C)(C)O2)CC(c2ccc3ncc(Br)cc3c2)=NO1 (centres unmarked) [compound 732] | 100 |
| 3.42[a] | – | – | – | C#Cc1cnc2ccc(C3=NOC(C)(C(=O)NC(C)c4ccccc4Cl)C3)cc2c1 (centres unmarked) [compound 349] | 94 |
| – | – | 2.39[a] | – | C#Cc1cc2cc(C3=NOC(C)(C(=O)NCc4cn(CC)nc4C)C3)ccc2nc1C#N (centres unmarked) [compound 491] | 75 |
| – | 3.11^[a] | – | – | C#Cc1cnc2ccc(C3=NOC(C)(C(=O)NCC4CCCOC4c4ccccc4)C3)cc2c1 (centres unmarked) [compound 222] | 71 |
| 2.27[a] | – | – | – | CCOCCCNC(=O)C1(C(C)O)CC(c2ccc3ncc(Br)cc3c2)=NO1 (centres unmarked) [compound 560] | 97 |
| – | – | 3.35[a] | – | C#Cc1cnc2ccc(C3=NOC(OC)(C(=O)N(C(C)C)C4CC4)C3)cc2c1 (centres unmarked) [compound 467] | 97 |
| – | 2.63^[a] | – | – | C#Cc1cnc2ccc(C3=NOC(C)(C(=O)NCc4ccc5[nH]ccc5c4)C3)cc2c1 (centres unmarked) [compound 115] | 75 |
| – | – | 2.96[a] | – | C#Cc1cnc2ccc(C3=NOC(OC)(C(=O)N(OC)C(C)C)C3)cc2c1 (centres unmarked) [compound 468] | 100 |
| – | 2.28^[a] | – | – | CCn1cc(CNC(=O)C2(C)CC(c3ccc4ncc(Cl)cc4c3)=NO2)c(C)n1 (centres unmarked) [compound 54] | 100 |
| 2.27[a] | – | – | – | CC1(C(=O)NC2CCOCC2)CC(c2ccc3ncc(Br)cc3c2)=NO1 (centres unmarked) [compound 307] | 100 |
| 2.56[a] | – | – | – | CC(NC(=O)C1(C)CC(c2ccc3ncc(Br)cc3c2)=NO1)c1nccs1 (centres unmarked) [compound 310] | 100 |
| – | – | 2.52[a] | – | C#Cc1cnc2ccc(C3=NOC(OC)(C(=O)NC(C)(C)c4ccon4)C3)cc2c1 (centres unmarked) [compound 509] | 97 |
| – | – | 2.50[a] | – | CCn1cc(NC(=O)C2(C)CC(c3ccc4ncc(Br)cc4c3)=NO2)c(C)n1 (centres unmarked) [compound 489] | 93 |

Further lines, the compound ahead of its results:

| Structure (SMILES) | log P [1, 2] | log P [1, 3] | log P [1, 4] | log P ([1]; HPLC on reversed phase columns, method [a]: pH 2.7, 0.1% formic acid in water and acetonitrile, linear gradient 10% to 95% acetonitrile) | % of efficacy (protection) (Septoria tritici) [%] |
| --- | --- | --- | --- | --- | --- |
| Cc1cnc(CNC(=O)C2(C)CC(c3cc(Cl)c4ncc(Br)cc4c3)=NO2)cn1 (centres unmarked) [compound 556] | 2.64[a] | – | – | – | 97 |
| CC#Cc1cnc2ccc(C3=NOC(C)(C(=O)NCc4cn(CC)nc4C)C3)cc2c1 (racemic) [compound 378] | – | – | 2.35[a] | – | 97 |
| CC(C)NC(=O)C1ON=C(c2ccc3ncc(Br)cc3c2)C1C (racemic) [compound 376] | – | – | 2.64[a] | – | 86 |
| CC1(C)OCC(CNC(=O)C2(C(F)F)CC(c3ccc4ncc(I)cc4c3)=NO2)O1 (centres unmarked) [compound 618] | 3.06[a] | – | – | – | 93 |
| COC1(C(=O)N(C)C)CC(c2ccc3ncc(Br)cc3c2)=NO1 (centres unmarked) [compound 396] | – | – | 2.51[a] | – | 97 |
| COC(CNC(=O)C1(C)CC(c2ccc3ncc(Br)cc3c2)=NO1)OC (centres unmarked) [compound 290] | 2.39[a] | – | – | – | 96 |
| Cc1ccc(CNC(=O)C2(C)CC(c3ccc4ncc(Br)cc4c3)=NO2)n1C (centres unmarked) [compound 152] | – | 3.21^[a] | – | – | 71 |
| C#Cc1cnc2ccc(C3=NOC(C)(C(=O)NC(CN4CCCC4)C4CC4)C3)cc2c1 (centres unmarked) [compound 361] | 1.37[a] | – | – | – | 78 |
| C#Cc1cnc2ccc(C3=NOC(C)(C(=O)NCC4CCOc5ccccc54)C3)cc2c1 (centres unmarked) [compound 223] | – | 3.11^[a] | – | – | 71 |
| CC(C)ONC(=O)C1(C)CC(c2ccc3ncc(Br)cc3c2)=NO1 (racemic) [compound 388] | – | – | 2.44[a] | – | 100 |
| C#Cc1cnc2ccc(C3=NOC(C)(C(=O)NC(c4cccc(Cl)c4)C(F)(F)F)C3)cc2c1 (centres unmarked) [compound 357] | 3.94[a] | – | – | – | 78 |
| C#Cc1cnc2ccc(C3=NOC(CC)(C(=S)NCc4cn(CC)nc4C)C3)cc2c1 (centres unmarked) [compound 507] | – | – | 3.31[a] | – | 97 |
| Cn1ccc(NC(=O)C2(C(F)(F)F)CC(c3ccc4ncc(Br)cc4c3)=NO2)c1 (centres unmarked) [compound 108] | – | 3.5^[a] | – | – | 75 |
| CCn1cc(CNC(=O)C2(C)CC(c3cc4cc(Br)cnc4c(OC)c3OC)=NO2)c(C)n1 (centres unmarked) [compound 30] | – | 2.42^[a] | – | – | 100 |
| COC1(C(=O)NC(C)C)CC(c2ccc3ncc(Br)cc3c2)=NO1 (single isomer, unassigned) [compound 285] | 2.57[a] | – | – | – | 100 |
| CCn1cc(CNC(=O)C2(C)CC(c3ccc4ncc(C#C[Si](C)(C)C)cc4c3)=NO2)c(C)n1 (centres unmarked) [compound 149] | – | 3.79^[a] | – | – | 93 |
| CC1(C(=O)NCc2cn[nH]c2-c2cccs2)CC(c2ccc3ncc(Br)cc3c2)=NO1 (centres unmarked) [compound 191] | – | 2.51^[a] | – | – | 71 |
| C#Cc1cnc2ccc(C3=NOC(OC)(C(=O)N(OC)C(C)CC)C3)cc2c1 (centres unmarked) [compound 466] | – | – | 3.31[a] | – | 97 |
| CC1(C(=O)NCc2ccc3ncsc3c2)CC(c2ccc3ncc(Br)cc3c2)=NO1 (centres unmarked) [compound 243] | 2.7^[a] | – | – | – | 71 |
| CCn1cc(CNC(=O)C2(Cc3ccccc3)CC(c3ccc4ncc(Br)cc4c3)=NO2)c(C)n1 (centres unmarked) [compound 56] | – | 3.23^[a] | – | – | 70 |
| C#Cc1cnc2ccc(C3=NOC(C)(C(=O)NC(C)c4nc(C(C)C)no4)C3)cc2c1 (centres unmarked) [compound 329] | 2.94[a] | – | – | – | 100 |
| Cc1nn(C(C)C)c(C)c1CNC(=O)C1(C)CC(c2ccc3ncc(Br)cc3c2)=NO1 (centres unmarked) [compound 184] | – | 2.6^[a] | – | – | 71 |
| C#Cc1cc2cc(C3=NOC(C)(C(=O)NCc4cn(CC)nc4C)C3)ccc2nc1OC (centres unmarked) [compound 490] | – | – | 2.55[a] | – | 88 |
| C#Cc1cnc2ccc(C3=NOC(C)(C(=S)NCc4cnn(C)c4C)C3)cc2c1 (racemic) [compound 443] | – | – | 2.76[a] | – | 88 |
